From PMC10033409, “Autoregulation of GPCR signalling through the third intracellular loop” (Nature, 2023)
“And” between values parts separate entries of the source, which are not always exact repeats. Equal entries are not always repeated. Structures can show the parent of a compound that is named as a salt.

How the values were obtained:
PTH1R [1] = molecular target: T1, PTH1R (Homo sapiens, UniProt Q03431); test: InsP1 accumulation, PTH1R; assay type: cell-based; settings: PTH1R Wild-Type
T1 construct: expressed in transfected cells; host or cells: HEK 293T
T1 sequence (Q03431 27-593): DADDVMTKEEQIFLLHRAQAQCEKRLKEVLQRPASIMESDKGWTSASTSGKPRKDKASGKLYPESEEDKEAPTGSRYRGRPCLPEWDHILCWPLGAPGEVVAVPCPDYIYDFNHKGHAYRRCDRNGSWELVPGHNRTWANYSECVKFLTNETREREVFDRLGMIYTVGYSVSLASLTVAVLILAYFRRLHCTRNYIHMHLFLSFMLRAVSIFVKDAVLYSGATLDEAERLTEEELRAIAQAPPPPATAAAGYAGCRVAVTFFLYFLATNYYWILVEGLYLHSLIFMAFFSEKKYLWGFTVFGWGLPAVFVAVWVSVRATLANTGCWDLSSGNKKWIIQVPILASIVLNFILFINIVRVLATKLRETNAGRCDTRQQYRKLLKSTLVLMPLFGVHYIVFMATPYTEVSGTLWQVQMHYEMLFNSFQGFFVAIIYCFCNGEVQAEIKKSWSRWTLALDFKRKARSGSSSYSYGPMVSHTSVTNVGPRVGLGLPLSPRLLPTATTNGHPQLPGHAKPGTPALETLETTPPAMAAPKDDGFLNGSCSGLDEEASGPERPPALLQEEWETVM
Method: (§1) One millilitre of medium was removed from each well containing transfected cells. The remaining volume was used to gently shear and resuspend the cells by pipetting. The cell mixture was centrifuged (3 min, 300g) and media was removed using a vacuum manifold. […] The cells were washed once by repeating this procedure.
(§2) For all other second messenger assays, expression level and cell density of each condition was estimated through fluorescence. Fluorescence spectra for mCerulean (Horiba Fluoromax 4, excitation 430 nm, emission scan 450–600 nm, bandpass 4 nm) and mCitrine (Horiba Fluoromax 4, excitation 490 nm, emission scan 500–600 nm, bandpass 4 nm) were acquired for each condition. Cells were resuspended at 350,000 ± 30,000 fluorescence counts at a wavelength representing optical density of the sample (excitation 430 nm/emission 450 nm), corresponding with 2 × 10^6 ± 5 × 10^5 cells per m^l. This was confirmed by counting the cells on a haemocytometer (Countess II).
(§3) Resuspended cells were added 1:1 with a 2× concentration of ligand (70 µl final) into an opaque 96-well U-bottom plate (Greiner Bio-One). […] Plates were incubated at 37 °C for 2 h to stimulate InsP1 production. Reactions were quenched and processed for the InsP1 HTRF Assay (CisBio), following a protocol modified to achieve a higher signal to noise ratio. Fifteen microlitres of D2-conjugated InsP1 resuspended in lysis buffer (Cisbio) and 15 µl of terbium cryptate conjugated anti-InsP1 antibody resuspended in lysis buffer (Cisbio) were added to the stimulated cell mixture. Cell lysate was equilibrated for 1 h at ambient temperature with shaking (500 rpm). Reactions were transferred (4 × 20 µl) to a 384-well plate for technical replicates. […] FRET ratio for each reading was calculated as the ratio of acceptor emission to donor emission. InsP1 signal for a drug and transfection combination was calculated as the average FRET ratio of a given transfection condition without drug treatment subtracted from the average FRET ratio of a of a given transfection condition with drug treatment.

PTH1R [2] = test: InsP1 accumulation, PTH1R; assay type: cell-based, human; settings: PTH1R B2AR ICL3
Method: as §1, §2, §3

β2AR = test: Radiolabelled antagonist-binding assay (saturation); parameters: species or system human; Bmax / 125I-Cyanopindolol saturation binding signal: unit not given here; settings: for Bmax / fmol 125I-Cyanopindolol/mg sample: replicates 1-3 and Average; for fmol 125I-Cyanopindolol/mg sample, Fit: fitted curve;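 on all read-outs here: membranes expressing β2AR constructs, equilibrated with radioligand on ice, bound ligand retained on GF/C filters, Bmax normalized to membrane protein from a DC assay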
Untransfected = test: Radiolabelled antagonist-binding assay (saturation), untransfected control sample; settings: fitted curve
From the text: Supplement 41586_2023_5789_MOESM3_ESM.xlsx, sheet "Extended Data Figure 3J"

[3] = [Isoproterenol] log(M) -6.30103
[4] = [Isoproterenol] log(M) -7.30103
[5] = [Isoproterenol] log(M) -8.30103
[6] = Sensor + Gs-peptide, 125I-Cyanopindolol 0.000239059 nM
[7] = Sensor + Gs-peptide, 125I-Cyanopindolol 0.0167722 nM
[8] = Sensor + Gs-peptide, 125I-Cyanopindolol 0.0344858 nM
[9] = Sensor + Gs-peptide, 125I-Cyanopindolol 0.073983 nM
[10] = Sensor + Gs-peptide, 125I-Cyanopindolol 0.202201 nM
[11] = Sensor + Gs-peptide, 125I-Cyanopindolol 0.415365 nM
[12] = Sensor + Gs-peptide, 125I-Cyanopindolol 0.83063 nM
[13] = Sensor + Gs-peptide, 125I-Cyanopindolol 1.64238 nM

CC(C)NCC(O)c1ccc(O)c(O)c1 (stereo not drawn) [Isoproterenol, isoproterenol (+)-bitartrate salt]
IP1 (AU), Average (PTH1R [1]; [Isoproterenol] log(M) -5): 0.44 AU
IP1 (AU), Average (PTH1R [1]; [Isoproterenol] log(M) -6): 0.45 AU
IP1 (AU), Average (PTH1R [1]; [3]): 0.41 AU
IP1 (AU), Average (PTH1R [1]; [Isoproterenol] log(M) -7): 0.38 AU
IP1 (AU), Average (PTH1R [1]; [4]): 0.22 AU
IP1 (AU), Average (PTH1R [1]; [Isoproterenol] log(M) -8): 0.0235 AU
IP1 (AU), Average (PTH1R [1]; [5]): 0.04 AU
IP1 (AU), Average (PTH1R [1]; [Isoproterenol] log(M) -9): -0.0234 AU
IP1 (AU), Average (PTH1R [1]; [Isoproterenol] log(M) -10): -0.0216 AU
IP1 (AU), Average (PTH1R [1]; [Isoproterenol] log(M) -11): -0.00815 AU
IP1 (AU), Average (PTH1R [2]; [Isoproterenol] log(M) -5): 0.32 AU
IP1 (AU), Average (PTH1R [2]; [Isoproterenol] log(M) -6): 0.35 AU
IP1 (AU), Average (PTH1R [2]; [3]): 0.29 AU
IP1 (AU), Average (PTH1R [2]; [Isoproterenol] log(M) -7): 0.28 AU
IP1 (AU), Average (PTH1R [2]; [4]): 0.15 AU
IP1 (AU), Average (PTH1R [2]; [Isoproterenol] log(M) -8): -0.00248 AU
IP1 (AU), Average (PTH1R [2]; [5]): -0.00156 AU
IP1 (AU), Average (PTH1R [2]; [Isoproterenol] log(M) -9.30103): 0.05 AU
IP1 (AU), Average (PTH1R [2]; [Isoproterenol] log(M) -10): -0.0155 AU
IP1 (AU), Average (PTH1R [2]; [Isoproterenol] log(M) -11): 0.00619 AU

[^125I](±)-cyanopindolol
Bmax (β2AR; Sensor + Gs-pep): 1992.85 and 2334.87 and 1180.14
fmol 125I-Cyanopindolol/mg sample, Fit (β2AR; [6]): 0.00E+00 fmol/mg sample
fmol 125I-Cyanopindolol/mg sample (β2AR; [6]): -1.828 fmol/mg sample and 0.6291 fmol/mg sample and 0.5155 fmol/mg sample
fmol 125I-Cyanopindolol/mg sample, Fit (β2AR; [7]): 3.85E+02 fmol/mg sample
fmol 125I-Cyanopindolol/mg sample (β2AR; [7]): 331.932 fmol/mg sample and 483.578 fmol/mg sample and 237.189 fmol/mg sample
fmol 125I-Cyanopindolol/mg sample, Fit (β2AR; [8]): 6.37E+02 fmol/mg sample
fmol 125I-Cyanopindolol/mg sample (β2AR; [8]): 633.08 fmol/mg sample and 885.671 fmol/mg sample and 427.455 fmol/mg sample
fmol 125I-Cyanopindolol/mg sample, Fit (β2AR; [9]): 9.68E+02 fmol/mg sample
fmol 125I-Cyanopindolol/mg sample (β2AR; [9]): 973.823 fmol/mg sample and 1370.71 fmol/mg sample and 652.022 fmol/mg sample
fmol 125I-Cyanopindolol/mg sample, Fit (β2AR; [10]): 1.38E+03 fmol/mg sample
fmol 125I-Cyanopindolol/mg sample (β2AR; [10]): 1415.68 fmol/mg sample and 1842.87 fmol/mg sample and 880.16 fmol/mg sample
fmol 125I-Cyanopindolol/mg sample, Fit (β2AR; [11]): 1.58E+03 fmol/mg sample
fmol 125I-Cyanopindolol/mg sample (β2AR; [11]): 1527.87 fmol/mg sample and 2049.46 fmol/mg sample and 1008.05 fmol/mg sample
fmol 125I-Cyanopindolol/mg sample, Fit (β2AR; [12]): 1.71E+03 fmol/mg sample
fmol 125I-Cyanopindolol/mg sample (β2AR; [12]): 1817.18 fmol/mg sample and 2238.94 fmol/mg sample and 1107.54 fmol/mg sample
fmol 125I-Cyanopindolol/mg sample, Fit (β2AR; [13]): 1.78E+03 fmol/mg sample
fmol 125I-Cyanopindolol/mg sample (β2AR; [13]): 1925.74 fmol/mg sample and 2301.14 fmol/mg sample and 1169.54 fmol/mg sample
fmol 125I-Cyanopindolol/mg sample (β2AR; Sensor + Gs-peptide, 125I-Cyanopindolol 1.64238 nM, mean): 1798.81 fmol/mg sample
fmol 125I-Cyanopindolol/mg sample, Fit (β2AR; Sensor, 125I-Cyanopindolol 0.0198458 nM (Average)): 3.34E+02 fmol/mg sample
fmol 125I-Cyanopindolol/mg sample, Fit (β2AR; Sensor, 125I-Cyanopindolol 0.0420593 nM (Average)): 5.96E+02 fmol/mg sample
fmol 125I-Cyanopindolol/mg sample, Fit (β2AR; Sensor, 125I-Cyanopindolol 0.234223 nM (Average)): 1.38E+03 fmol/mg sample
fmol 125I-Cyanopindolol/mg sample, Fit (β2AR; Sensor, 125I-Cyanopindolol 0.468204 nM (Average)): 1.60E+03 fmol/mg sample
fmol 125I-Cyanopindolol/mg sample, Fit (β2AR; Sensor, 125I-Cyanopindolol 0.871756 nM (Average)): 1.73E+03 fmol/mg sample
fmol 125I-Cyanopindolol/mg sample, Fit (β2AR; Sensor, 125I-Cyanopindolol 1.70257 nM (Average)): 1.81E+03 fmol/mg sample
Bmax (β2AR; Sensor): 1914.14 and 2557.54 and 1116.04
125I-Cyanopindolol saturation binding signal (β2AR; ∆ICL3 + 30 µM Q, 0.0283 nM, Average): 236.51
125I-Cyanopindolol saturation binding signal (β2AR; ∆ICL3 + 30 µM Q, 0.0283 nM, Fit): 285.20
125I-Cyanopindolol saturation binding signal (β2AR; ∆ICL3 + 30 µM Q, 0.0283 nM, experiments 1-3): 222.98 and 255.55 and 231.00
125I-Cyanopindolol saturation binding signal (β2AR; ∆ICL3 + 30 µM Q, 0.0474 nM, Average): 366.56
125I-Cyanopindolol saturation binding signal (β2AR; ∆ICL3 + 30 µM Q, 0.0474 nM, Fit): 463.24
125I-Cyanopindolol saturation binding signal (β2AR; ∆ICL3 + 30 µM Q, 0.0474 nM, experiments 1-3): 296.41 and 421.89 and 381.36
125I-Cyanopindolol saturation binding signal (β2AR; ∆ICL3 + 30 µM Q, 0.10 nM, Average): 910.97
125I-Cyanopindolol saturation binding signal (β2AR; ∆ICL3 + 30 µM Q, 0.10 nM, Fit): 816.24
125I-Cyanopindolol saturation binding signal (β2AR; ∆ICL3 + 30 µM Q, 0.10 nM, experiments 1-3): 840.60 and 993.89 and 898.42
125I-Cyanopindolol saturation binding signal (β2AR; ∆ICL3 + 30 µM Q, 1.85 nM, Average): 1906.34
125I-Cyanopindolol saturation binding signal (β2AR; ∆ICL3 + 30 µM Q, 1.85 nM, Fit): 1809.97
125I-Cyanopindolol saturation binding signal (β2AR; ∆ICL3 + 30 µM Q, 1.85 nM, experiments 1-3): 1586.99 and 2170.25 and 1961.77
125I-Cyanopindolol saturation binding signal (β2AR; ∆ICL3, 0.0283 nM, Average): 126.54
125I-Cyanopindolol saturation binding signal (β2AR; ∆ICL3, 0.0283 nM, Fit): 399.52
125I-Cyanopindolol saturation binding signal (β2AR; ∆ICL3, 0.0283 nM, experiments 1-3): 94.88 and 85.74
125I-Cyanopindolol saturation binding signal (β2AR; ∆ICL3, 0.0474 nM, Average): 687.11
125I-Cyanopindolol saturation binding signal (β2AR; ∆ICL3, 0.0474 nM, Fit): 612.62
125I-Cyanopindolol saturation binding signal (β2AR; ∆ICL3, 0.10 nM, Average): 1201.35
125I-Cyanopindolol saturation binding signal (β2AR; ∆ICL3, 0.10 nM, Fit): 1024.98
125I-Cyanopindolol saturation binding signal (β2AR; ∆ICL3, 1.85 nM, Average): 2504.14
125I-Cyanopindolol saturation binding signal (β2AR; ∆ICL3, 1.85 nM, Fit): 2413.51
125I-Cyanopindolol saturation binding signal (β2AR; ∆ICL3, 1.85 nM, experiments 1-3): 2561.55 and 2855.56 and 2095.33
fmol 125I-Cyanopindolol/mg sample, Fit (Untransfected; 125I-Cyanopindolol 0.0198458 nM (Average)): 7.834e-5 fmol/mg sample
fmol 125I-Cyanopindolol/mg sample, Fit (Untransfected; 125I-Cyanopindolol 0.0420593 nM (Average)): 0.0001875 fmol/mg sample
fmol 125I-Cyanopindolol/mg sample, Fit (Untransfected; 125I-Cyanopindolol 0.234223 nM (Average)): 0.05859 fmol/mg sample
fmol 125I-Cyanopindolol/mg sample, Fit (Untransfected; 125I-Cyanopindolol 0.468204 nM (Average)): 1.044 fmol/mg sample
fmol 125I-Cyanopindolol/mg sample, Fit (Untransfected; 125I-Cyanopindolol 0.871756 nM (Average)): 13.7262 fmol/mg sample
fmol 125I-Cyanopindolol/mg sample, Fit (Untransfected; 125I-Cyanopindolol 1.70257 nM (Average)): 172.555 fmol/mg sample
